This assay deals with T1, hGIP-R (Homo sapiens, UniProt P48546).
T1 construct: expressed in transfected cells; host or cells: HEK-293 clonal cell lines
T1 sequence (P48546 22-466): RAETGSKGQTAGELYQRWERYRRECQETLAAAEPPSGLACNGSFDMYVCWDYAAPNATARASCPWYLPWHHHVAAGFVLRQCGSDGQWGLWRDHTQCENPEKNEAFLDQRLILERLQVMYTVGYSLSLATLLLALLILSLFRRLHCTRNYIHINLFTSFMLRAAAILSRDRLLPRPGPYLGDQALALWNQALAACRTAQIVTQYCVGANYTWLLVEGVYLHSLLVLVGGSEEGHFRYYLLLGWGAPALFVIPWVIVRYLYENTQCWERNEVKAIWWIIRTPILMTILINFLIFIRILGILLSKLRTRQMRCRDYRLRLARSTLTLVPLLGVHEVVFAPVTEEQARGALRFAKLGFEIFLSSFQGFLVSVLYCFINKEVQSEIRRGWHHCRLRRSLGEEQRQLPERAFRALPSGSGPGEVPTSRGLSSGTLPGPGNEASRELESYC
Put plainly: Functional hGIP-R Assay (cAMP formation, HTRF). The following applies: for Emax: cAMP efficacy, percent of maximal response to GIP(1-42)OH, 37° C., 0.1% bovine casein, arithmetic mean ± SEM; for EC50: cAMP potency, HEK-293 cells expressing hGIP-R, incubated at 37° C. in the presence of 0.1% bovine casein, geometric mean, read-out: Human GIP-R EC50, nM (SEM, n). Type of assay: cell-based. The gist of the method:
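HEK-293 cells expressing hGIP-R were given a 20-point compound series in DMEM with 0.1% casein, 250 μM IBMX, 1% DMSO, 30 min at 37 °C. cAMP was read by HTRF against a standard curve, expressed as % of human GIP (1-42) OH maximum; EC50 and Emax came from four-parameter fits.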

What is called Emax is the maximal effect, on the per cent scale that the assay sets. By EC50 is commonly meant the concentration at which the effect is half-maximal.

For the compound `Cn1cc(C[C@@H](NC(=O)[C@H]2C[C@@H]2c2ccc(-c3cnc4nn(C)cc4c3)cc2)C(=O)NC(C)(C)Cn2nc(C(F)(F)F)cc2-c2cn[nH]c2)cn1` [Example 41, (1S,2S)-N—((R)-1-((2-Methyl-1-(5-(trifluoromethyl)-1′H,2H-[3,4′-bipyrazol]-2-yl)propan-2-yl)amino)-3-(1-methyl-1H-pyrazol-4-yl)-1-oxopropan-2-yl)-2-(4-(2-methyl-2H-pyrazolo[3,4-b]pyridin-5-yl)phenyl)cyclopropane-1-carboxamide], the Emax is 111 ± 4.76% and the EC50 worked out at 20.2 nM.
As to `Cn1cc(C[C@@H](NC(=O)[C@H]2C[C@@H]2c2ccc(-c3cnc4nn(C)cc4c3)cc2)C(=O)NC(C)(C)Cn2nc(C(F)(F)F)cc2-c2cc[nH]n2)cn1` [Example 42], the maximal effect (Emax) is 114 ± 10.2% and the EC50 is 52.7 nM.
Regarding `Cn1cc2cc(-c3ccc([C@H]4C[C@@H]4C(=O)N[C@H](Cc4cnn(C(F)F)c4)C(=O)NC(C)(C)Cn4nc(C(F)(F)F)cc4-c4cn[nH]n4)cc3)cnc2n1` [Example 43, (1S,2S)-N-((R)-1-((1-(5-(2H-1,2,3-Triazol-4-yl)-3-(trifluoromethyl)-1H-pyrazol-1-yl)-2-methylpropan-2-yl)amino)-3-(1-(difluoromethyl)-1H-pyrazol-4-yl)-1-oxopropan-2-yl)-2-(4-(2-methyl-2H-pyrazolo[3,4-b]pyridin-5-yl)phenyl)cyclopropane-1-carboxamide], the maximal effect (Emax) was 116 ± 4.26% and the EC50 stood at 61.1 nM.
With `Cn1cc(C[C@@H](NC(=O)[C@H]2C[C@@H]2c2ccc(-c3cnc4nn(C)cc4c3)cc2)C(=O)NC(C)(C)Cn2nc(C(F)F)cc2-c2cn[nH]n2)cn1` [Example 44, (1S,2S)-N-((R)-1-((1-(3-(Difluoromethyl)-5-(2H-1,2,3-triazol-4-yl)-1H-pyrazol-1-yl)-2-methylpropan-2-yl)amino)-3-(1-methyl-1H-pyrazol-4-yl)-1-oxopropan-2-yl)-2-(4-(2-methyl-2H-pyrazolo[3,4-b]pyridin-5-yl)phenyl)cyclopropane-1-carboxamide], the maximum response (Emax) came to 111 ± 17.5% and the EC50 worked out at 122 nM.
For `CC(C)(Cn1cc(C(F)(F)F)cn1)NC(=O)[C@@H](Cc1cnc2ncccn12)NC(=O)[C@H]1C[C@@H]1c1ccc(NC(=O)C2CCC(F)(F)CC2)cc1` [Example 45, 4,4-Difluoro-N-(4-((1S,2S)-2-(((R)-3-(imidazo[1,2-a]pyrimidin-3-yl)-1-((2-methyl-1-(4-(trifluoromethyl)-1H-pyrazol-1-yl)propan-2-yl)amino)-1-oxopropan-2-yl)carbamoyl)cyclopropyl)phenyl)cyclohexane-1-carboxamide], the maximum response (Emax) turned out to be 79.8 ± 9.84% and the concentration for a half-maximal effect (EC50) turned out to be 10.7 nM.
Turning to `CC(C)(Cn1cc(C(F)(F)F)cn1)NC(=O)[C@@H](Cc1cnc2ncccn12)NC(=O)[C@H]1C[C@@H]1c1ccc(NC(=O)C2CC(F)(F)C2)cc1` [Example 46, 3,3-Difluoro-N-(4-((1S,2S)-2-(((R)-3-(imidazo[1,2-a]pyrimidin-3-yl)-1-((2-methyl-1-(4-(trifluoromethyl)-1H-pyrazol-1-yl)propan-2-yl)amino)-1-oxopropan-2-yl)carbamoyl)cyclopropyl)phenyl) cyclobutane-1-carboxamide], the Emax amounted to 66.4 ± 2.06% and the EC50 stood at 77.9 nM.
With `CC(C)(Cn1cc(C(F)(F)F)cn1)NC(=O)[C@@H](Cc1cnc2ncccn12)NC(=O)[C@H]1C[C@@H]1c1ccc(-c2cnc3nccn3c2)cc1` [Example 47, (1S,2S)-N-((R)-3-(Imidazo[1,2-a]pyrimidin-3-yl)-1-((2-methyl-1-(4-(trifluoromethyl)-1H-pyrazol-1-yl)propan-2-yl)amino)-1-oxopropan-2-yl)-2-(4-(imidazo[1,2-a]pyrimidin-6-yl)phenyl) cyclopropane-1-carboxamide], the maximal response (Emax) was found to be 84.6 ± 1.49% and the concentration giving a half-maximal response (EC50) was found to be 41.5 nM.
Regarding `CC(C)(Cc1ccc(F)cc1)NC(=O)[C@@H](Cc1cnc2ncccn12)NC(=O)[C@H]1C[C@@H]1c1ccc(NC(=O)C2CC(F)(F)C2)cc1` [Example 48, 3,3-Difluoro-N-(4-((1S,2S)-2-(((R)-1-((1-(4-fluorophenyl)-2-methylpropan-2-yl)amino)-3-(imidazo[1,2-a]pyrimidin-3-yl)-1-oxopropan-2-yl)carbamoyl)cyclopropyl)phenyl)cyclobutane-1-carboxamide], the maximum response (Emax) came out at 56.5 ± 4.38% and the EC50 was 76.9 nM.
With `CC(C)(Cc1ccc(F)cc1)NC(=O)[C@@H](Cc1cnc2ncccn12)NC(=O)[C@H]1C[C@@H]1c1ccc(NC(=O)C2CCC(F)(F)CC2)cc1` [Example 49, 4,4-Difluoro-N-(4-((1S,2S)-2-(((R)-1-((1-(4-fluorophenyl)-2-methylpropan-2-yl)amino)-3-(imidazo[1,2-a]pyrimidin-3-yl)-1-oxopropan-2-yl)carbamoyl)cyclopropyl)phenyl)cyclohexane-1-carboxamide], the Emax came out at 72.6 ± 3.47% and the EC50 worked out at 12.6 nM.
As for `Cn1cc(C[C@@H](NC(=O)[C@H]2C[C@@H]2c2ccc(-c3cnc4nn(C)cc4c3)cc2)C(=O)NC(C)(C)Cn2nc(C(F)(F)F)cc2C2CCC2)cn1` [Example 51, (1S,2S)-N—((R)-1-((1-(5-Cyclobutyl-3-(trifluoromethyl)-1H-pyrazol-1-yl)-2-methylpropan-2-yl)amino)-3-(1-methyl-1H-pyrazol-4-yl)-1-oxopropan-2-yl)-2-(4-(2-methyl-2H-pyrazolo[3,4-b]pyridin-5-yl)phenyl)cyclopropane-1-carboxamide], the Emax was determined as 120 ± 6.49% and the half-maximal effective concentration (EC50) was found to be 62.7 nM.
In the case of `Cn1cc(C[C@@H](NC(=O)[C@H]2C[C@@H]2c2ccc(-c3cnc4nn(C)cc4c3)cc2)C(=O)NC(C)(C)Cn2nc(C(F)(F)F)cc2-c2ccn(C)c(=O)c2)cn1` [Example 52, (1S,2S)-N—((R)-1-((2-Methyl-1-(5-(1-methyl-2-oxo-1,2-dihydropyridin-4-yl)-3-(trifluoromethyl)-1H-pyrazol-1-yl)propan-2-yl)amino)-3-(1-methyl-1H-pyrazol-4-yl)-1-oxopropan-2-yl)-2-(4-(2-methyl-2H-pyrazolo[3,4-b]pyridin-5-yl)phenyl)cyclopropane-1-carboxamide], the Emax came to 98.4 ± 3.96% and the EC50 turned out to be 53 nM.
In the same order, the values of `Cn1cc(C[C@@H](NC(=O)[C@H]2C[C@@H]2c2ccc(-c3cnc4nn(C)cc4c3)cc2)C(=O)NC(C)(C)Cn2nc(C(F)(F)F)cc2-c2cnn(C3COC3)c2)cn1` [Example 54, (1S,2S)-N-((R)-1-((2-Methyl-1-(1′-(oxetan-3-yl)-5-(trifluoromethyl)-1′H,2H-[3,4′-bipyrazol]-2-yl)propan-2-yl)amino)-3-(1-methyl-1H-pyrazol-4-yl)-1-oxopropan-2-yl)-2-(4-(2-methyl-2H-pyrazolo[3,4-b]pyridin-5-yl)phenyl) cyclopropane-1-carboxamide] are 137 ± 14.1% and 76.8 nM.
On to `Cn1cc(C[C@@H](NC(=O)[C@H]2C[C@@H]2c2ccc(-c3cnc4nn(C)cc4c3)cc2)C(=O)NC(C)(C)Cn2nc(C(F)(F)F)cc2-c2cnn(CC3COC3)c2)cn1` [Example 55, (1S,2S)-N-((R)-1-((2-Methyl-1-(1′-(oxetan-3-ylmethyl)-5-(trifluoromethyl)-1′H,2H-[3,4′-bipyrazol]-2-yl)propan-2-yl)amino)-3-(1-methyl-1H-pyrazol-4-yl)-1-oxopropan-2-yl)-2-(4-(2-methyl-2H-pyrazolo[3,4-b]pyridin-5-yl)phenyl) cyclopropane-1-carboxamide], for which the Emax stood at 109 ± 0.179% and the EC50 turned out to be 49.1 nM.

Source of the values: patent US20260108546A1 (ELI LILLY AND COMPANY, priority 2024, published 2026).
